Reference: patent publication US11254944B2, “Agrobacterium derived cell penetrating peptides as nanocarriers” (priority 2017, dated 2022)
Where a SMILES comes first, the peptide text is derived from it. The star is where a group is joined. FITC = O=C1OC2(c3ccc(O)cc3Oc3cc(O)ccc32)c2ccc(NC(=S)*)cc21

How the values were obtained:
[1] = tested on: root tips and leaf bases of T. aestivum; assay: Translocation of Vir in meristematic tissues (root tips, leaf bases); type: cell-based; conditions: 5-40 μM
Method: FIG. 3: illustrates the translocation of Vir in various tissues of T. aestivum (A) leaf bases (B) root tips. Different panels represent (a) Untreated (b) Dextran sulphate (5 μM) (c) M-Tat (5 μM) (d) Tat (5 μM) (e) Vir: 5 μM (f) 10 μM (g) 15 μM (h) 20 μM (i) 30 μM (j) 40 μM.
In another embodiment, a method of targeting and delivering macromolecules to a meristematic tissue that is, root tips and leaf bases, of T. aestivum(wheat plant) using the agrobacterium derived cell penetrating peptide nanocarrier Vir includes incubating the meristematic tissues that is, root tips and leaf bases, of T. aestivum with the peptide nanocarrier.
In the said embodiment, a process for identification of optimum concentration of the peptide nanocarrier in the meristematic tissues of T. aestivum is substantially the same as identification of optimum concentration of the nano-carrier Vir in the mesophyll protoplasts of T. aestivum as discussed above and is illustrated in FIG. 3.

[2] = tested on: mesophyll protoplasts of T. aestivum; assay: Cellular uptake of FITC-Vir in mesophyll protoplasts (confocal microscopy, fluorimetry); type: cell-based; conditions: for CPP activity compared with the parent peptide: 15 μM
Method: FIG. 2: illustrates the cellular internalization of FITC-Vir in mesophyll protoplasts of T. aestivum (A) Confocal microscopic images of cellular uptake (a) untreated (No peptide) (b) Vir (15 μM) (c) Tat (5 μM) (d) M-Tat (5 μM) (e) Dextran Sulphate (5 μM). (B) Quantitative estimation of uptake in protoplasts as assessed by fluorimetry.
In the said embodiment, a process for identification of optimum concentration and mechanism of cellular uptake of Vir of the peptide nano-carrier in the mesophyll protoplasts of T. aestivum is described below and illustrated in FIG. 2 by employing several endocytic inhibitors such as sodium azide, nocodazole, cytochalasin-D cytochalasin D, and chlorpromazine for blocking different energy-dependent pathways.
It is observed that with increasing concentration, the number of cells internalizing the peptide also increases proportionally.
(§1) FIG. 2 illustrates that in case of protoplasts, the uptake of Vir is affected in the presence of either endocytic inhibitors.
The viability of the protoplasts is affected at higher concentrations of the peptide, as a drop of 20-30% at 15 μM and 60-70% at 30 μM in the percentage of viable cells is observed with respect to untreated cells (viability 90%).

root tips and leaf bases = assay: Reporter protein (β-glucuronidase) delivery by Vir in root tips and leaf bases; type: cell-based, T. aestivum; conditions: β-glucuronidase 1 μg, Vir 15 μM
Text: (§2) FIG. 6: illustrates an analysis of cargo delivery ability of Vir peptide in plant and mammalian systems. Macromolecule delivery by Vir in (A) Protoplast of wheat (B) leaf bases (C) root tips with (a) no peptide (b) GUS buffer only (c) β-glucuronidase only (d) Vir only (e) Vir-β-galactosidase; (D) HeLa cells with (a) non peptide (b) X-gal staining solution only (c) β-galactosidase only (d) Vir only (e) Vir-β-galactosidase.
(§3) In one embodiment, the ability of the peptide nanocarrier to deliver macromolecular cargoes in cells is evaluated by using β-glucuronidase enzyme as the reporter protein whereas β-galactosidase is employed for delivery in mammalian cells. The reporter proteins are non-covalently complexed with peptide nanocarrier, SEQ ID NO: 3 with the sequence KRPRRKRARGNRR at room temperature for 1 hr. The reporter proteins are used at a concentration of 1 μg while the peptide nanocarrier is used at the optimized concentration that is, 15 μM for complex formation. The peptide-protein complexes thus formed, were incubated with mammalian cells, plant protoplasts and tissues (root tips and leaf bases) further for 1 hour at 18-37 deg C. and room temperature, at pH range from 5.5 to 7.5 respectively. The enzyme delivery by peptide nanocarrier is examined by staining the cells with respective staining solutions. […]

HeLa cells [3] = assay: Cellular uptake of FITC-Vir in HeLa cells (confocal microscopy, flow cytometry); type: cell-based
Method: FIG. 4: illustrates the cellular translocation of FITC-Vir in HeLa cells (A) confocal microscopy (a) Untreated (b) Vir (15 μM) (c) Tat (5 μM) (d) M-Tat (5 μM) (e) Dextran Sulphate (5 μM). (B) Quantitative estimation of uptake in HeLa cells as assessed by flow cytometry.
as §1
In one such embodiment, a method of targeting and delivering macromolecules to HeLa cells, as representative of mammalian system, using the peptide nanocarrier includes incubating the HeLa cells with the agrobacterium derived cell penetrating peptide nanocarrier Vir.
(§4) In the said embodiment, a process for identification of optimum concentration of the nano-carrier Vir in the HeLa cells is substantially the same as identification of optimum concentration of the nano-carrier Vir in the mesophyll protoplasts of T. aestivum as discussed above and is illustrated in FIG. 4. It is observed that the internalization in HeLa cells starts from 5 μM but a distinct nuclear localization is observed from 15 μM onwards as shown in FIG. 4. As observed with protoplasts, the peptide uptake in HeLa cells also increases with increasing concentration of peptide with 60-70% cells showing uptake at 15 μM and more than 90% cells showing uptake at 30 μM. However, unlike protoplasts, the viability of HeLa cells is not compromised greatly as 94% cells remained viable at 15 μM and 84% cells at 30 μM.

Protoplast of wheat = assay: Reporter protein (β-glucuronidase) delivery by Vir in wheat protoplasts; type: cell-based, T. aestivum; conditions: β-glucuronidase 1 μg, Vir 15 μM
Text: as §2, §3

[4] = Viability of HeLa cells after peptide incubation; type: cell-based; conditions: human, read-out: cells remained viable
Method: as §4

HeLa cells [5] = assay: Reporter protein (β-galactosidase) delivery by Vir in HeLa cells; type: cell-based; conditions: β-galactosidase 1 μg, Vir 15 μM
Text: as §2, §3

Row | Molecule | uptake in the tissues [1] | cells show uptake [2] | concentration from which prominent nuclear localization is observed [2] [µM] | number of cells exhibiting cellular uptake ([2]; distinct nuclear localization) | uptake in the presence of endocytic inhibitors ([2]; sodium azide, nocodazole, cytochalasin D, chlorpromazine) | delivery efficiency (root tips and leaf bases; leaf bases) [%] | delivery efficiency (root tips and leaf bases; root tips) [%] | concentration from which distinct nuclear localization is observed (HeLa cells [3]) [µM] | concentration from which internalization starts (HeLa cells [3]) [µM] | cells showing uptake (HeLa cells [3]; 15 μM) | cells showing uptake (HeLa cells [3]; 30 μM) | cellular uptake reduced (HeLa cells [3]; at 4° C.) [%] | cellular uptake reduced (HeLa cells [3]; in presence of chlorpromazine) [%] | cellular uptake in presence of other inhibitors (HeLa cells [3]; other endocytic inhibitors) | delivery efficiency (Protoplast of wheat) [%] | viability at 15 µM ([4]; 15 μM) [%] | viability at 30 µM ([4]; 30 μM) [%] | efficiency of β-galactosidase delivery (HeLa cells [5]) | CPP activity compared with the parent peptide [2] | CPP activity compared with the parent peptide (HeLa cells [3]; 15 μM)
1 | C[C@H](NC(=O)[C@H](CCCNC(=N)N)NC(=O)[C@H](CCCCN)NC(=O)[C@H](CCCNC(=N)N)NC(=O)[C@H](CCCNC(=N)N)NC(=O)[C@@H]1CCCN1C(=O)[C@H](CCCNC(=N)N)NC(=O)[C@H](CCCCN)NC(=S)Nc1ccc2c(c1)C(=O)OC21c2ccc(O)cc2Oc2cc(O)ccc21)C(=O)N[C@@H](CCCNC(=N)N)C(=O)NCC(=O)N[C@@H](CC(N)=O)C(=O)N[C@@H](CCCNC(=N)N)C(=O)N[C@@H](CCCNC(=N)N)C(=O)O [Vir, KRPRRKRARGNRR] ({FITC}-KRPRRKRARGNRR-OH; N-terminus and C-terminus assumed) | increases with increasing concentration of the peptide | 10-15% | ≥ 15 | 50-60% | affected | 90 | 90 | ≥ 15 | ≥ 5 | 60-70% | more than 90% | 20 | 20 | remained unaffected | 50 | 94 | 84 | more than 90% |  | 
2 | KAPARKRARGNRR [M-Vir1, mutated VirD2 peptide, mutation in KRPR to KAPA] |  |  |  |  |  |  |  |  |  |  |  |  |  |  |  |  |  |  | increased | increased
3 | KRPRRKAAAGNRR [M-Vir2, mutated VirD2 peptide, mutation in RKRAR to RKAAA] |  |  |  |  |  |  |  |  |  |  |  |  |  |  |  |  |  |  | remains similar to the parent peptide | remains similar to the parent peptide
